Experimental data: patent US20090035876A1, “Electrochemical Assay” (Inverness Medical Switzerland GMBH, priority 2005, published 2009)

Columns and labels:
[1] = biological target: human serum albumin (HSA) (Homo sapiens, UniProt P02768); conditions: probe 25 μM, HSA 500 μM, cyclic voltammetry
Description: Cyclic voltammetry was used to measure the concentration of the ferrocene labelled fatty acid probe with and without the presence of HSA allowing percentage bound to be calculated.

[2] = Photolysis of the UV-cleavable ferrocene molecule in solution, followed by TLC; format: physicochemical; conditions: UV 365 nm, methanolic/PBS solution, 2.18 mM
Description: The cleavage study was followed by Thin Layer Chromatography (TLC) after irradiation for a definite time of a methanolic/PBS solution of the UV-cleavable ferrocene 9 (FIG. 3). • After 2 minutes of irradiation, the appearance of two new products was observed; One of them corresponding to the ferrocene product 8 (on the base line), the other one corresponding probably to the nitroso-derivative 10 just under the front line). • Under the irradiation conditions used, the Uv-cleavable ferrocene molecule was completely cleaved in less than 6 minutes.
To a solution of UV-cleavable ferrocene 9 (0.7 mg, 1.09*10^−6 mol) dissolved in 250 μl of methanol was added 250 μl of PBS. 30 μl of this solution was irradiated using a UV model B100A with a wavelength of 365 nm and an intensity of 8,900 μW/cm^2 at 10″. The UV was applied at approximately 15 cm from the solution.
The cleavage was followed by TLC every two minutes. Eluent used: Ethyl acetate/hexane (80/20) and DCM/MeOH/Et3N (85/10/5).

Sequence of human serum albumin (HSA) (P02768 25-609): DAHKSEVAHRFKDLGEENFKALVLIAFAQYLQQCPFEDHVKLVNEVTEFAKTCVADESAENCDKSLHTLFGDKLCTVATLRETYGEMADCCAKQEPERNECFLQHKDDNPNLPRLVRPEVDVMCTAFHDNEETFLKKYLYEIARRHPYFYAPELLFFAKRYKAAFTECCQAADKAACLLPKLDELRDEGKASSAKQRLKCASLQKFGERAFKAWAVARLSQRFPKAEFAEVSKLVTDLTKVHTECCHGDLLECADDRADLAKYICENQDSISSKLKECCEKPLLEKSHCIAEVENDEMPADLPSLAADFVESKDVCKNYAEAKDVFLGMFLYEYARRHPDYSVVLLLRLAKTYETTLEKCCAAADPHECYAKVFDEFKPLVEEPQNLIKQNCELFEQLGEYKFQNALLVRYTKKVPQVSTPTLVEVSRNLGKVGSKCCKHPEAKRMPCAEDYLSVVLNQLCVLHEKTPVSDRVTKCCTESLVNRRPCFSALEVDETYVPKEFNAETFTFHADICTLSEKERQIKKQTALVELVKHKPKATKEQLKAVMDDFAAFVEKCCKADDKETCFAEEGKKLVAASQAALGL

Row | Compound | percentage bound to HSA [1] [%] | irradiation time until completely cleaved [2]
1 | OC[c-]1cccc1.[Fe+2].c1cc[cH-]c1 [ferrocene methanol] | 50 | –
2 | Thioacetic acid S—[3-(1-{2-[2-(2-ferrocenoylamino-ethoxy)-ethoxy]-ethylcarbamoyloxy}-ethyl)-4-nitro-benzyl]ester [UV-cleavable ferrocene molecule 9] | – | less than 6 minutes
